The values below come from ChEMBL document CHEMBL1275378, “Exploration of the active site of neuronal nitric oxide synthase by the design and synthesis of pyrrolidinomethyl 2-aminopyridine derivatives” (J Med Chem, 2010).

Test [1] is described as follows: Selectivity ratio of IC50 for rat recombinant nNOS to IC50 for mouse recombinant iNOS.
The target of another test is T1, Nitric oxide synthase 3 (Bos taurus, UniProt P29473).
T1 sequence (P29473 whole entry): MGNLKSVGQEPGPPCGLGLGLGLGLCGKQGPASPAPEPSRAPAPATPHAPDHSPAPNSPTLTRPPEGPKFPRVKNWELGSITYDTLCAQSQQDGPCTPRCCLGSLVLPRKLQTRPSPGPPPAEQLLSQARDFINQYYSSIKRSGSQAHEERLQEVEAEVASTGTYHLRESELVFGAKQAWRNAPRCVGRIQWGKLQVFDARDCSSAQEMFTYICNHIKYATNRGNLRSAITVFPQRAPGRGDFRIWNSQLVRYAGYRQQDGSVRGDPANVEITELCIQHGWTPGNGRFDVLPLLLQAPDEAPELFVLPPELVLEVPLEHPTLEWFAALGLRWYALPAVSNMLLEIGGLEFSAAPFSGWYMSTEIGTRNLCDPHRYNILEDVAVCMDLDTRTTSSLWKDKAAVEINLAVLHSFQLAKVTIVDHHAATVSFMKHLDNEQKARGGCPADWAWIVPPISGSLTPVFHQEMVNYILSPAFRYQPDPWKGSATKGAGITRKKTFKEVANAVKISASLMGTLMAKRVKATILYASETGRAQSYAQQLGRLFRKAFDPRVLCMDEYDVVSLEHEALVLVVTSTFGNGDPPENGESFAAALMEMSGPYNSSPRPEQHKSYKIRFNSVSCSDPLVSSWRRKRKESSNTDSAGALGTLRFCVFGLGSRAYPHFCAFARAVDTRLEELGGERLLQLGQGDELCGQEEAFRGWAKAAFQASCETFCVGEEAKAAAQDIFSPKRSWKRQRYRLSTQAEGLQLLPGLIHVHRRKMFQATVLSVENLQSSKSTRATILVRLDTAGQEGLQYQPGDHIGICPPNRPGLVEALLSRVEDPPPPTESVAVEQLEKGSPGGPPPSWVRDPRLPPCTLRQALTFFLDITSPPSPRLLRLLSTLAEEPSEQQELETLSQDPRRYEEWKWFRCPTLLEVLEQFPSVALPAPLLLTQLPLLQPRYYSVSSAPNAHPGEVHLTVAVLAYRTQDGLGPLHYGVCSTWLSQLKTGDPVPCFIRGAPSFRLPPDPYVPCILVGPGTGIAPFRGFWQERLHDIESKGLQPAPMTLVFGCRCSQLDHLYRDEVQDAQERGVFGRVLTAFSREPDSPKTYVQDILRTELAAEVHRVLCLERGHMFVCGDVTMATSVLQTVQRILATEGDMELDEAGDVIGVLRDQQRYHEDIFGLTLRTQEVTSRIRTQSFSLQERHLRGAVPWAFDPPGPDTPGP
Put plainly: Inhibition of bovine recombinant eNOS.

Test [2] is described as follows: Selectivity ratio of IC50 for rat recombinant nNOS to IC50 for bovine recombinant eNOS.

Broadly, the Ki is a dissociation constant, usually derived from enzyme kinetics or from competition with a known ligand.

`Cc1cc(N)nc(C[C@H]2CNC[C@@H]2NCCCO)c1` (racemic): in test [1], the Ratio worked out at 8.
Regarding `NCCN1C[C@H](Cc2cccc(N)n2)[C@H](NCCCc2ccccc2)C1` (racemic), the Ki at Nitric oxide synthase 3 amounted to 122 µM. Moreover, the nNOS selectivity over eNOS (eNOS IC50 / nNOS IC50) in test [2] came out at 2.5. Besides, the Ratio in test [1] worked out at 13.
For the molecule `NCCN1C[C@H](Cc2cccc(N)n2)[C@@H](NCCCc2ccccc2)C1` (racemic), the Ki on Nitric oxide synthase 3 was determined as 173 µM. In test [2], the nNOS selectivity over eNOS (eNOS IC50 / nNOS IC50) was 43. In test [1], the Ratio was 110.
Turning to `NCCN1C[C@H](Cc2cccc(N)n2)[C@H](NCCCO)C1` (racemic), on Nitric oxide synthase 3, the Ki was determined as 849 µM.
Still for that read-out and setting: the result for `NCCN1C[C@H](Cc2cccc(N)n2)[C@@H](NCCCO)C1` (racemic) reads 1700 µM.
On to `CN(C)CCN[C@H]1CNC[C@@H]1Cc1cccc(N)n1` (racemic), for which the Ki at Nitric oxide synthase 3 was 242 µM. For the same molecule, in test [2], the nNOS selectivity over eNOS (eNOS IC50 / nNOS IC50) was 15. In addition, the Ratio in test [1] is 20.
Take `Nc1cccc(C[C@H]2CNC[C@@H]2NCCNCc2ccccc2)n1` (racemic): the Ki at Nitric oxide synthase 3 came to 2910 µM. In addition, the nNOS selectivity over eNOS (eNOS IC50 / nNOS IC50) in test [2] is 201. Besides, the Ratio in test [1] turned out to be 11.5.
For `Nc1cccc(C[C@H]2CNC[C@@H]2NC[C@H](N)Cc2ccccc2)n1` (racemic), in that order: 1450 µM, 105 and 21.5.
As for `Nc1cccc(C[C@H]2CNC[C@@H]2NC[C@@H](N)Cc2ccccc2)n1` (racemic), the inhibitory constant (Ki) on Nitric oxide synthase 3 worked out at 1450 µM. In test [2], the nNOS selectivity over eNOS (eNOS IC50 / nNOS IC50) amounted to 71. In test [1], the Ratio came to 20.
Regarding `Nc1cccc(C[C@H]2CNC[C@@H]2N[C@H]2CCNC2)n1` (racemic), the Ki at Nitric oxide synthase 3 is 625 µM. In test [2], the nNOS selectivity over eNOS (eNOS IC50 / nNOS IC50) was 49. The Ratio in test [1] worked out at 18.
As to `Nc1cccc(C[C@H]2CNC[C@@H]2N[C@@H]2CCNC2)n1` (racemic), the inhibition constant (Ki) at Nitric oxide synthase 3 came out at 460 µM. Further, the nNOS selectivity over eNOS (eNOS IC50 / nNOS IC50) in test [2] was determined as 22. In addition, in test [1], the Ratio turned out to be 12.
The like results for `Nc1cccc(C[C@H]2CNC[C@@H]2N[C@H]2CCN(Cc3ccccc3)C2)n1` (racemic) were, in that order, 109 µM, 6 and 12.
For `Nc1cccc(C[C@H]2CNC[C@@H]2N[C@@H]2CCN(Cc3ccccc3)C2)n1` (racemic), in that order: 171 µM, 7 and 12.
Take `Cc1cc(N)nc(C[C@H]2CNC[C@@H]2NCCNCc2ccc(C(F)(F)F)cc2)c1` (racemic): at Nitric oxide synthase 3, the Ki came to 61.2 µM.
As to `Cc1cc(N)nc(C[C@H]2CNC[C@@H]2NCCNCc2ccc(F)cc2)c1` (racemic), the inhibition constant (Ki) on Nitric oxide synthase 3 turned out to be 78.8 µM. Besides, in test [2], the nNOS selectivity over eNOS (eNOS IC50 / nNOS IC50) came out at 90.5. Also, in test [1], the Ratio was 31.
With `Cc1cc(N)nc(C[C@H]2CNC[C@@H]2NCCNCc2cccc(C(F)(F)F)c2)c1` (racemic), the inhibition constant (Ki) at Nitric oxide synthase 3 was 109 µM. For the same molecule, the nNOS selectivity over eNOS (eNOS IC50 / nNOS IC50) in test [2] amounted to 147. Further, the Ratio in test [1] came out at 79.
For `Cc1cccc(CNCCN[C@H]2CNC[C@@H]2Cc2cc(C)cc(N)n2)c1` (racemic), in that order: 202 µM, 306 and 127.
For `Cc1cc(N)nc(C[C@H]2CNC[C@@H]2NCCNCc2ccc(Cl)c(Cl)c2)c1` (racemic), in that order: 63.2 µM, 153 and 57.
The like results for `Cc1cc(N)nc(C[C@H]2CNC[C@@H]2NCCNCc2ccc(Cl)cc2Cl)c1` (racemic) were, in that order, 76.1 µM, 158 and 92.
With `Cc1cc(N)nc(C[C@H]2CNC[C@@H]2NC[C@H](C)NCc2ccc(Cl)cc2)c1` (racemic), the Ki at Nitric oxide synthase 3 was determined as 16.5 µM. For the same molecule, in test [2], the nNOS selectivity over eNOS (eNOS IC50 / nNOS IC50) turned out to be 28. Moreover, the Ratio in test [1] was 35.
On to `Cc1cc(N)nc(C[C@H]2CNC[C@H]2N(C)CCNCc2ccc(Cl)cc2)c1` (racemic), for which the Ki on Nitric oxide synthase 3 came out at 58.1 µM.
`Cc1cc(N)nc(C[C@H]2CNC[C@@H]2NCCNCCc2ccc(F)cc2)c1` (racemic): the Ki on Nitric oxide synthase 3 worked out at 44.1 µM. Moreover, the nNOS selectivity over eNOS (eNOS IC50 / nNOS IC50) in test [2] is 370. Further, the Ratio in test [1] is 190.
Consider `Cc1cc(N)nc(C[C@H]2CNC[C@@H]2NCCCc2ccccc2)c1` (racemic), for which the Ki on Nitric oxide synthase 3 was 85.2 µM. Further, the nNOS selectivity over eNOS (eNOS IC50 / nNOS IC50) in test [2] worked out at 6. Also, the Ratio in test [1] amounted to 11.
For `Nc1cccc(C[C@H]2CNC[C@@H]2O)n1` (racemic), in that order: 341 µM, 49 and 4.
On to `Cc1cc(N)nc(C[C@H]2CNC[C@@H]2NCCN)c1` (racemic; form 1) [listing 1 of 2 here], for which the Ki on Nitric oxide synthase 3 worked out at 866 µM.
Consider `Cc1cc(N)nc(C[C@H]2CNC[C@@H]2NCCN)c1` (racemic; form 1) [listing 2 of 2 here], for which the Ratio in test [1] was found to be 9.
Regarding `Cc1cc(N)nc(C[C@H]2CNC[C@@H]2NCCN)c1` (racemic; form 2) [listing 1 of 2 here], the inhibitory constant (Ki) on Nitric oxide synthase 3 worked out at 263 µM.
Regarding `Cc1cc(N)nc(C[C@H]2CNC[C@@H]2NCCN)c1` (racemic; form 2) [listing 2 of 2 here], the Ratio in test [1] came to 52.5.
